Assay results taken from US9718804B2, “GSK-3 inhibitors” (BRISTOL-MYERS SQUIBB COMPANY, priority 2013, dated 2017).
Like-named read-outs stand apart in the source and are kept apart here.

What was measured:
pTau = pTau assay (no method described); assay type: cell-based
GSK3β = GSK3β (Homo sapiens, UniProt P49841); assay: GSK3β kinase assay (Caliper LabChip, fluoresceinated peptide substrate); assay type: biochemical
Outline: (§1)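 RT, 20 h incubation; EDTA stop (35 mM). Microfluidic electrophoretic separation of product vs. substrate.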

GSK3α = GSK3α (Homo sapiens, UniProt P49840); assay: GSK3α kinase assay (Caliper LabChip, fluoresceinated peptide substrate); assay type: biochemical
Outline: as §1

[1] = first value of the cell, 250 pM enzyme, 20 uM ATP, 20 hours at room temperature, read-out: GSK3β/α (nM): GSK3β IC50
[2] = second value of the cell, 250 pM enzyme, 20 uM ATP, 20 hours at room temperature, read-out: GSK3β/α (nM): GSK3α IC50

GSK3α, sequence (P49840 whole entry, species assumed): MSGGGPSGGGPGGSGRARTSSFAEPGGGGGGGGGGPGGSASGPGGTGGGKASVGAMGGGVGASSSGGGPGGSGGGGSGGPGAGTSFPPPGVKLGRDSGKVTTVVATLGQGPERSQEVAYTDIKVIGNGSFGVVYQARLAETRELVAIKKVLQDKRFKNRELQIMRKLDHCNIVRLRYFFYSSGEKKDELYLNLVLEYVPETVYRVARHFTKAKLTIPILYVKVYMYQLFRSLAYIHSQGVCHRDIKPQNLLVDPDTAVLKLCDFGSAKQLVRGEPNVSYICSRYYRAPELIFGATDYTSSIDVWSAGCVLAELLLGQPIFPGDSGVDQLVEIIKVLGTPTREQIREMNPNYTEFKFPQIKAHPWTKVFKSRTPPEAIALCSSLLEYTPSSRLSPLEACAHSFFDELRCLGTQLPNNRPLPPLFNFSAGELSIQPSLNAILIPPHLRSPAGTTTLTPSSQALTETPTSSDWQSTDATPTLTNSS
GSK3β, sequence (P49841 whole entry, species assumed): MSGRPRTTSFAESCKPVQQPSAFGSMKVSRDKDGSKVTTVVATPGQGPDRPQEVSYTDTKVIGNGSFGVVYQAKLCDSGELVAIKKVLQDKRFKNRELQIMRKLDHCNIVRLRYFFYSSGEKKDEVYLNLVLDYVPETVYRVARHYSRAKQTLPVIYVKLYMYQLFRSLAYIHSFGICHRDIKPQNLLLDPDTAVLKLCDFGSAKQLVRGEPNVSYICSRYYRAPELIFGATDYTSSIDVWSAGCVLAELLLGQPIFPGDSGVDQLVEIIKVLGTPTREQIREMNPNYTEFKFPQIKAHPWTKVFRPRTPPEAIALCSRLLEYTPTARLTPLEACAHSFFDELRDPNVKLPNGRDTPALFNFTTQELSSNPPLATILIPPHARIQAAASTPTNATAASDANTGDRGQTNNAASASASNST

Structure (SMILES) | IC50 (pTau) | IC50 (GSK3β; [1]) | IC50 (GSK3α) | IC50 (GSK3β) | IC50 (GSK3α; [2])
O=C(Nc1cnc(Cl)cc1C(=O)C1CC1)c1ccnc(Nc2ccc(C(F)(F)F)cn2)c1 [Example 92, N-(6-Chloro-4-(cyclopropanecarbonyl)pyridin-3-yl)-2-((5-(trifluoromethyl)pyridin-2-yl)amino)isonicotinamide] | 1400 nM | 8.8 nM | 4 nM |  | 
O=C(Nc1cnc(Cl)cc1C(O)C1CC1)c1ccnc(Nc2ccc(C(F)(F)F)cn2)c1 (stereo not drawn) [Example 93, N-(6-Chloro-4-(cyclopropyl(hydroxy)methyl)pyridin-3-yl)-2-((5-(trifluoromethyl)pyridin-2-yl)amino)isonicotinamide] | 110 nM | 2.6 nM | 0.78 nM |  | 
O=C(Nc1cnc(F)cc1C1(C2CC2)OCCO1)c1ccnc(Nc2ccc(C(F)(F)F)cn2)c1 [Example 94, N-(4-(2-Cyclopropyl-1,3-dioxolan-2-yl)-6-fluoropyridin-3-yl)-2-((5-(trifluoromethyl)pyridin-2-yl)amino)isonicotinamide] | 1.2 nM | 0.06 nM | 0.03 nM |  | 
O=C(Nc1cnc(Cl)cc1C1(c2ccccc2)OCCO1)c1ccnc(Nc2ccc(C(F)(F)F)cn2)c1 [Example 95, N-(6-Chloro-4-(2-phenyl-1,3-dioxolan-2-yl)pyridin-3-yl)-2-((5-(trifluoromethyl)pyridin-2-yl)amino)isonicotinamide] | 910 nM | 10 nM | 5.5 nM |  | 
C[C@@H]1CO[C@](c2cc(Cl)ncc2NC(=O)c2ccnc(Nc3ccc(C(F)(F)F)cn3)c2)(C2CC2)O1 [Example 96, N-(6-Chloro-4-((2R,4R)-2-cyclopropyl-4-methyl-1,3-dioxolan-2-yl)pyridin-3-yl)-2-((5-(trifluoromethyl)pyridin-2-yl)amino)isonicotinamide] | 39 nM | 0.29 nM | 0.16 nM |  | 
C[C@H]1CO[C@](c2cc(Cl)ncc2NC(=O)c2ccnc(Nc3ccc(C(F)(F)F)cn3)c2)(C2CC2)O1 [Example 97, N-(6-Chloro-4-((2R,4S)-2-cyclopropyl-4-methyl-1,3-dioxolan-2-yl)pyridin-3-yl)-2-((5-(trifluoromethyl)pyridin-2-yl)amino)isonicotinamide] | 84 nM | 1.5 nM | 0.56 nM |  | 
CC(O)(c1cc(Cl)ncc1NC(=O)c1ccnc(Nc2ccc(C(F)(F)F)cn2)c1)C1CC1 (stereo not drawn) [Example 98, N-(6-Chloro-4-(1-cyclopropyl-1-hydroxyethyl)pyridin-3-yl)-2-((5-(trifluoromethyl)pyridin-2-yl)amino)isonicotinamide] | 230 nM | 3.7 nM | 4 nM |  | 
O=C(Nc1cnc(Cl)cc1C(O)(C1CC1)C1CC1)c1ccnc(Nc2ccc(C(F)(F)F)cn2)c1 [Example 99, N-(6-Chloro-4-(dicyclopropyl(hydroxy)methyl)pyridin-3-yl)-2-((5-(trifluoromethyl)pyridin-2-yl)amino)isonicotinamide] | 430 nM | 6.4 nM | 4.6 nM |  | 
CCCC(O)c1cc(Cl)ncc1NC(=O)c1ccnc(Nc2ccc(C(F)(F)F)cn2)c1 (stereo not drawn) [Example 100, N-(6-Chloro-4-(1-hydroxybutyl)pyridin-3-yl)-2-((5-(trifluoromethyl)pyridin-2-yl)amino)isonicotinamide] | 500 nM | 11 nM | 8.4 nM |  | 
CCC(O)(c1cc(Cl)ncc1NC(=O)c1ccnc(Nc2ccc(C(F)(F)F)cn2)c1)C1CC1 (stereo not drawn) [Example 101, N-(6-Chloro-4-(1-cyclopropyl-1-hydroxypropyl)pyridin-3-yl)-2-((5-(trifluoromethyl)pyridin-2-yl)amino)isonicotinamide] | 660 nM | 11 nM | 7.4 nM |  | 
CC(C)C(O)(c1cc(Cl)ncc1NC(=O)c1ccnc(Nc2ccc(C(F)(F)F)cn2)c1)C1CC1 (stereo not drawn) [Example 102, N-(6-Chloro-4-(1-cyclopropyl-1-hydroxy-2-methylpropyl)pyridin-3-yl)-2-((5-(trifluoromethyl)pyridin-2-yl)amino)isonicotinamide] | 1200 nM | 43 nM | 30 nM |  | 
CC(C)C(O)c1cc(Cl)ncc1NC(=O)c1ccnc(Nc2ccc(C(F)(F)F)cn2)c1 (stereo not drawn) [Example 103, N-(6-Chloro-4-(1-hydroxy-2-methylpropyl)pyridin-3-yl)-2-((5-(trifluoromethyl)pyridin-2-yl)amino)isonicotinamide] | 540 nM | 6.7 nM | 3.9 nM |  | 
CC(C)(C)C(O)c1cc(Cl)ncc1NC(=O)c1ccnc(Nc2ccc(C(F)(F)F)cn2)c1 (stereo not drawn) [Example 104, N-(6-Chloro-4-(1-hydroxy-2,2-dimethylpropyl)pyridin-3-yl)-2-((5-(trifluoromethyl)pyridin-2-yl)amino)isonicotinamide] | 280 nM | 18 nM | 9.9 nM |  | 
Cc1cc(C(O)C2CC2)c(NC(=O)c2ccnc(Nc3ccc(C(F)(F)F)cn3)c2)cn1 (stereo not drawn) [Example 106, N-(4-(Cyclopropyl(hydroxy)methyl)-6-methylpyridin-3-yl)-2-((5-(trifluoromethyl)pyridin-2-yl)amino)isonicotinamide] | 22 nM | 0.25 nM | 0.49 nM |  | 
Cc1cc(C(C)(O)C2CC2)c(NC(=O)c2ccnc(Nc3ccc(C(F)(F)F)cn3)c2)cn1 (stereo not drawn) [Example 107, N-(4-(1-Cyclopropyl-1-hydroxyethyl)-6-methylpyridin-3-yl)-2-((5-(trifluoromethyl)pyridin-2-yl)amino)isonicotinamide] | 94 nM | 0.92 nM | 0.75 nM |  | 
CCC1(c2cc(Cl)ncc2NC(=O)c2ccnc(Nc3ccccn3)c2)OCCO1 [Example 108, N-(6-Chloro-4-(2-ethyl-1,3-dioxolan-2-yl)pyridin-3-yl)-2-(pyridin-2-ylamino)isonicotinamide] | 30 nM |  |  | 1.4 nM | 0.95 nM
CCC1(c2cc(Cl)ncc2NC(=O)c2ccnc(Nc3ccc(C)cn3)c2)OCCO1 [Example 109, N-(6-Chloro-4-(2-ethyl-1,3-dioxolan-2-yl)pyridin-3-yl)-2-((5-methylpyridin-2-yl)amino)isonicotinamide] | 45 nM |  |  | 1.8 nM | 1.2 nM
O=C(Nc1cnc(F)cc1OCC(F)(F)F)c1ccnc(Nc2ccc(Cl)cn2)c1 [Example 110, 2-((5-Chloropyridin-2-yl)amino)-N-(6-fluoro-4-(2,2,2-trifluoroethoxy)pyridin-3-yl)isonicotinamide] | 170 nM | 3.8 nM | 0.51 nM |  | 
O=C(Nc1cnc(Cl)cc1C1(O)CCOCC1)c1ccnc(Nc2ccc(Cl)cn2)c1 [Example 111, N-(6-Chloro-4-(4-hydroxytetrahydro-2H-pyran-4-yl)pyridin-3-yl)-2-((5-chloropyridin-2-yl)amino)isonicotinamide] | 530 nM |  |  | 2.6 nM | 1.4 nM
CC(C)(C)COc1cc(F)ncc1NC(=O)c1ccnc(Nc2ccc(Cl)cn2)c1 [Example 112, 2-((5-Chloropyridin-2-yl)amino)-N-(6-fluoro-4-(neopentyloxy)pyridin-3-yl)isonicotinamide] | 850 nM | 5 nM | 3 nM |  | 
CCC1(c2cc(Cl)ncc2NC(=O)c2ccnc(Nc3ccc(F)cn3)c2)OCCO1 [Example 113, N-(6-Chloro-4-(2-ethyl-1,3-dioxolan-2-yl)pyridin-3-yl)-2-((5-fluoropyridin-2-yl)amino)isonicotinamide] | 14 nM | 1.7 nM | 0.04 nM |  | 
